Measurements reported in ChEMBL document CHEMBL1201862, “PubChem BioAssay data set” (2004).
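Dose response: 5 concentrations. Exposure: 48 h. Format: 96-well plates. Endpoint: linear interpolation; highest concentration if not reached. GI50 marks 50% less growth.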 Calls of active or inactive are those of the source. Rule as the data show it: active = GI50 up to about 1.1 µM and inactive = higher.

Key:
Test in all cases: NCI tumour cell line growth inhibition, 48 h
SNB-78 = system: SNB-78
KM-20L2 = system: KM-20L2
XF498 = system: XF498
DMS-273 = system: DMS-273
M19-MEL = system: M19-MEL
LXFL 529 = system: LXFL 529
DMS-114 = system: DMS-114
HOP-18 = system: HOP-18
RXF 631 = system: RXF 631

Row | Structure (SMILES) | GI50 (SNB-78) | GI50 (KM-20L2) | GI50 (XF498) | GI50 (DMS-273) | GI50 (M19-MEL) | GI50 (LXFL 529) | GI50 (DMS-114) | GI50 (HOP-18) | GI50 (RXF 631)
1 | Cc1ccc(NC(=O)CSc2nnc(Cc3ccccc3)o2)c(C)c1 | > 100 µM (inactive) | > 100 µM (inactive) | > 100 µM (inactive) | > 100 µM (inactive) | > 100 µM (inactive) | > 100 µM (inactive) | > 100 µM (inactive) | > 100 µM (inactive) | –
2 | C/C(=N/NC(N)=S)c1ccc2ccccc2c1 | 45.5 µM (inactive) | 23.7 µM (inactive) | 82.2 µM (inactive) | 24.9 µM (inactive) | 9.79 µM (inactive) | 22.3 µM (inactive) | 17.9 µM (inactive) | – | –
3 | CCc1cccc(C(C)C)c1N1C(=O)C(=O)C(c2nc3ccccc3s2)C(=O)C1=O | > 50 µM (inactive) | 48.4 µM (inactive) | > 50 µM (inactive) | > 45.3 µM (inactive) | 39.1 µM (inactive) | 28.9 µM (inactive) | 29.6 µM (inactive) | > 50 µM (inactive) | –
4 | O=C(Nc1ccc(Sc2ccc(/N=N/c3c(O)c(S(=O)(=O)O)cc4cc(S(=O)(=O)O)ccc34)cc2)cc1)c1ccc(/N=N/c2c(O)c(S(=O)(=O)O)cc3cc(S(=O)(=O)O)ccc23)cc1 | 25.8 µM (inactive) | 63.5 µM (inactive) | 36.4 µM (inactive) | 15.1 µM (inactive) | 19.5 µM (inactive) | 18.1 µM (inactive) | 5.42 µM (inactive) | 23 µM (inactive) | –
5 | CC(C)(CN1CCOCC1)C(=O)/C=C/c1ccc(/C=C/C(=O)C(C)(C)CN2CCOCC2)cc1 | 1.21 µM (inactive) | 1.36 µM (inactive) | 1.42 µM (inactive) | 0.457 µM (active) | – | 1.1 µM (active) | 0.757 µM (active) | – | 1.36 µM (inactive)
6 | Cc1cn2cc(-c3ccncc3)nc2s1 | > 100 µM (inactive) | > 100 µM (inactive) | > 100 µM (inactive) | > 100 µM (inactive) | > 86.7 µM (inactive) | > 100 µM (inactive) | > 91.4 µM (inactive) | > 100 µM (inactive) | > 100 µM (inactive)
7 | c1ccc(P(=Nc2ccccc2N=P(c2ccccc2)(c2ccccc2)c2ccccc2)(c2ccccc2)c2ccccc2)cc1 | 0.489 µM (active) | 1.38 µM (inactive) | 0.208 µM (active) | 0.309 µM (active) | 0.818 µM (active) | 0.337 µM (active) | 0.405 µM (active) | 0.172 µM (active) | 1.34 µM (inactive)
8 | O=C(/C=C/c1ccc(O)cc1)c1cc(Cl)ccc1O | 29.9 µM (inactive) | > 100 µM (inactive) | 23.7 µM (inactive) | – | 72.1 µM (inactive) | 42.5 µM (inactive) | 23.3 µM (inactive) | > 100 µM (inactive) | –
9 | O=C1CSC(/C(=C\c2ccc(Cl)cc2)c2nc3ccccc3[nH]2)=N1 | 41.3 µM (inactive) | 31 µM (inactive) | 1.36 µM (inactive) | 21 µM (inactive) | 15.2 µM (inactive) | 20.8 µM (inactive) | – | – | –
10 | O=C(N/C(=C\c1ccc(/C=C(\NC(=O)c2ccccc2)c2nc3cc([N+](=O)[O-])ccc3[nH]2)cc1)c1nc2cc([N+](=O)[O-])ccc2[nH]1)c1ccccc1 | > 100 µM (inactive) | 37.8 µM (inactive) | – | 51.6 µM (inactive) | 52.4 µM (inactive) | 28.4 µM (inactive) | 18.8 µM (inactive) | > 100 µM (inactive) | 34.5 µM (inactive)
11 | CSc1nsc(-c2ccccc2)[s+]1.[O-][Cl+3]([O-])([O-])[O-] | > 100 µM (inactive) | > 100 µM (inactive) | – | > 100 µM (inactive) | > 100 µM (inactive) | – | – | > 100 µM (inactive) | > 100 µM (inactive)
12 | Cc1ccc(NCCO)cc1 | > 100 µM (inactive) | > 100 µM (inactive) | > 100 µM (inactive) | – | – | > 100 µM (inactive) | 61.7 µM (inactive) | – | –
13 | Oc1ccc(C2Oc3cc(O)cc4c3C2c2cc(O)cc3c2C(c2cc(O)cc5c2C4C(c2ccc(O)cc2)O5)C(c2ccc(O)cc2)O3)cc1 (configuration not stated) | – | 13.2 µM (inactive) | 5.51 µM (inactive) | 8.07 µM (inactive) | 10.4 µM (inactive) | 5.41 µM (inactive) | 7.11 µM (inactive) | – | –
14 | COC(=O)C(Cc1cc(OC)c(OC)c(OC)c1)C(=O)OC | – | > 320 µM (inactive) | > 320 µM (inactive) | > 320 µM (inactive) | > 320 µM (inactive) | > 320 µM (inactive) | > 320 µM (inactive) | – | > 320 µM (inactive)
15 | Cc1cc(Cl)ccc1NC(=O)CC1SC(NC(=O)c2ccccc2Cl)=NC1=O (configuration not stated) | 21.6 µM (inactive) | 28.6 µM (inactive) | 14.8 µM (inactive) | 18.9 µM (inactive) | 19.2 µM (inactive) | 18 µM (inactive) | 20.4 µM (inactive) | – | –
16 | c1ccc2c(c1)nnn1c3cnccc3nc21 | 25.5 µM (inactive) | 53.1 µM (inactive) | – | 15.9 µM (inactive) | 65.9 µM (inactive) | 31.8 µM (inactive) | 20.2 µM (inactive) | 53.5 µM (inactive) | –
17 | COc1cccc(NC(=O)/C(CC(=O)CC(c2ccccc2)c2c(O)c3ccccc3oc2=O)=N\NC(C)(C)C)c1OC (configuration not stated) | > 100 µM (inactive) | 51.4 µM (inactive) | – | – | > 100 µM (inactive) | 41.3 µM (inactive) | 22.8 µM (inactive) | – | –
18 | Cc1cc(N(CCC#N)CCC#N)ccc1/C=C1N=C(/C=C\c2ccccc2)OC\1=O | > 100 µM (inactive) | > 100 µM (inactive) | > 100 µM (inactive) | > 100 µM (inactive) | > 100 µM (inactive) | > 100 µM (inactive) | > 100 µM (inactive) | > 100 µM (inactive) | –
19 | CCOC(=O)/C=C1\Nc2ccccc2C(c2ccccc2)=NC1OC(C)=O (configuration not stated) | > 100 µM (inactive) | – | – | > 100 µM (inactive) | > 100 µM (inactive) | > 100 µM (inactive) | > 100 µM (inactive) | – | –
20 | O=C(Cc1nc2ccc([N+](=O)[O-])cc2nc1O)C(=O)Nc1ccccc1[N+](=O)[O-] | – | 87.3 µM (inactive) | – | > 100 µM (inactive) | > 100 µM (inactive) | > 100 µM (inactive) | 39.5 µM (inactive) | – | –
21 | COc1ccc2nc3cc(Cl)ccc3c(Nc3ccccc3-c3ccccc3Nc3c4ccc(Cl)cc4nc4ccc(OC)cc34)c2c1 | > 100 µM (inactive) | 19.9 µM (inactive) | > 39.4 µM (inactive) | 20.4 µM (inactive) | > 34.7 µM (inactive) | 17.1 µM (inactive) | – | > 100 µM (inactive) | > 34.8 µM (inactive)
22 | COC(=O)c1cc(Cl)ccc1NC(=O)c1ccc([N+](=O)[O-])cc1 | 32.6 µM (inactive) | 21.3 µM (inactive) | 14.4 µM (inactive) | 21.6 µM (inactive) | 40.7 µM (inactive) | 25.8 µM (inactive) | 33.5 µM (inactive) | – | 17.6 µM (inactive)
23 | O=C1CCC2(c3ccccc3)Nc3ccc(Cl)cc3N12 (configuration not stated) | > 100 µM (inactive) | > 100 µM (inactive) | > 100 µM (inactive) | – | > 100 µM (inactive) | > 100 µM (inactive) | 63.5 µM (inactive) | – | > 100 µM (inactive)
24 | Clc1ccc(C(c2ccccc2Cl)C(Cl)Cl)cc1 (configuration not stated) [MITOTANE] | 20.7 µM (inactive) | 16.9 µM (inactive) | 15.7 µM (inactive) | 18.5 µM (inactive) | 19.7 µM (inactive) | 20.9 µM (inactive) | 18.5 µM (inactive) | 12.5 µM (inactive) | 17.9 µM (inactive)
25 | C=CCCCCCCCCC(=O)O [UNDECYLENIC ACID] | 106 µM (inactive) | 114 µM (inactive) | 17.1 µM (inactive) | 127 µM (inactive) | 149 µM (inactive) | – | 135 µM (inactive) | 125 µM (inactive) | –
